Results from article PMC5983644, “Expression and Interaction Analysis among Saffron ALDHs and Crocetin Dialdehyde” (International Journal of Molecular Sciences, 2018).

Target: T1, ALDH20158 (Crocus sativus, UniProt A0A3G1GZK3)
T1 sequence (A0A3G1GZK3 31-535): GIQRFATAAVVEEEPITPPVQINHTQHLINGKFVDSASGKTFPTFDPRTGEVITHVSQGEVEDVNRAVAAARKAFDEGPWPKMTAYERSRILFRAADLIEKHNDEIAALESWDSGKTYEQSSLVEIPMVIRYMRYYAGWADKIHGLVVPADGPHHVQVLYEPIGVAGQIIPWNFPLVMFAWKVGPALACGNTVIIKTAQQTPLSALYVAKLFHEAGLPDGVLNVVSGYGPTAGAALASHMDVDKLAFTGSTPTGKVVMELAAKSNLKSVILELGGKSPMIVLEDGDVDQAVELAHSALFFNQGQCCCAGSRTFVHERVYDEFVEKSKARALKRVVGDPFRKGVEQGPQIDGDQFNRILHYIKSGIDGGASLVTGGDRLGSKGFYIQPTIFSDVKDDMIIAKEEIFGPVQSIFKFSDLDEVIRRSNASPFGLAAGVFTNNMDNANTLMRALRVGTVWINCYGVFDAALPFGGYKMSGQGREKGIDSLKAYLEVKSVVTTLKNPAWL
Assay: LC-APCI(+)-MS of crocetin formed by crude extract of E. coli expressing the enzyme
Format: biochemical
Settings: NAD+, pyrophosphate buffer, NaCl, pH 7.5, 28 C, 30 min; empty-vector extract as control

C\C(C=O)=C/C=C/C(C)=C/C=C/C=C(C)/C=C/C=C(\C)C=O [crocetin dialdehyde]
LC-APCI(+)-MS of crocetin formed by crude extract of E. coli expressing the enzy: the same results were obtained using ALDH20158 and ALDH3898
